SMILES strings stand for the structures.

A short description of data set [1]: Half life in rat liver microsomes. Format: ADME, Microsome. On the technique in general: Microsomes from liver hold many membrane-bound enzymes, among them those of drug oxidation.
Data set [2] has as its target T1, Nuclear receptor subfamily 1 group I member 2 (Homo sapiens, UniProt O75469).
T1 sequence (O75469 whole entry): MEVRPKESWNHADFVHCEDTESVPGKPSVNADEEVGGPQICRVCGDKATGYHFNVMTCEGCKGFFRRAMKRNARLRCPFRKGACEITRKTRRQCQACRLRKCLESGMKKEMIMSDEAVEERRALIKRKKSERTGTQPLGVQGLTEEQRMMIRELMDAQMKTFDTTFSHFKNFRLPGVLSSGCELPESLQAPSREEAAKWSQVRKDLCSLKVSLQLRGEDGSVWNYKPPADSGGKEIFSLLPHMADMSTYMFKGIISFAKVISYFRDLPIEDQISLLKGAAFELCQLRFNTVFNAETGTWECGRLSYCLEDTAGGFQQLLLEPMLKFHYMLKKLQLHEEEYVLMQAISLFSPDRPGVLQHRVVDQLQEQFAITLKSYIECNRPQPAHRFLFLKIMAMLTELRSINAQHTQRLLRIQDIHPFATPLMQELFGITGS
Nature of the data set: Inverse agonist activity at PXR (unknown origin).

The target in data set [3] is T2, Nuclear receptor ROR-alpha (Homo sapiens, UniProt P35398).
T2 sequence (P35398 whole entry): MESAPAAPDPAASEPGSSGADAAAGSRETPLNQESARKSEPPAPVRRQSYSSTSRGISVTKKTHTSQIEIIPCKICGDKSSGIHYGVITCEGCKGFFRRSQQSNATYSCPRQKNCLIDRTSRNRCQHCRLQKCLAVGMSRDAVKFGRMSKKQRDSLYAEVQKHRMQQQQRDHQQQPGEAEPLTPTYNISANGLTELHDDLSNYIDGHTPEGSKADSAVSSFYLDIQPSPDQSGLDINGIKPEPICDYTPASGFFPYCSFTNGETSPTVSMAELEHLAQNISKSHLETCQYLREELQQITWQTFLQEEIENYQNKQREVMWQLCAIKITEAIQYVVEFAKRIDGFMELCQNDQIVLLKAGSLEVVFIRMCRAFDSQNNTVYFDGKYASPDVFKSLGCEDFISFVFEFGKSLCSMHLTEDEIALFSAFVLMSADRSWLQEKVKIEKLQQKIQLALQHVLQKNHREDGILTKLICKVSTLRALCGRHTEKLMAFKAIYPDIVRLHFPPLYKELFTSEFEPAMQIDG
Nature of the data set: Inverse agonist activity at Gal4-fused RORalpha (unknown origin).

For data set [4], the target named is T3, Oxysterols receptor LXR-alpha (Homo sapiens, UniProt Q13133).
T3 sequence (Q13133 whole entry): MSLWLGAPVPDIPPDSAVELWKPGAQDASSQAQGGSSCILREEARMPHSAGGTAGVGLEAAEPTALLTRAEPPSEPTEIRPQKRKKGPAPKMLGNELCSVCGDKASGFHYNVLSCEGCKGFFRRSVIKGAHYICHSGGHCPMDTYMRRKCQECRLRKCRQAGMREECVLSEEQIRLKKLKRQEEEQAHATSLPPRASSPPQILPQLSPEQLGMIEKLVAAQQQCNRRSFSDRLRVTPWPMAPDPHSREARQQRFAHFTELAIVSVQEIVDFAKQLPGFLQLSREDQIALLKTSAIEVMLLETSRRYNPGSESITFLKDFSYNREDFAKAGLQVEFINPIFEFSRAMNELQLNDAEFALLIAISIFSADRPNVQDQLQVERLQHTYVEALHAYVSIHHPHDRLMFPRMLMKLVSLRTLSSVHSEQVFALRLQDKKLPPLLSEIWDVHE
Nature of the data set: Inverse agonist activity at LXRalpha (unknown origin).

The target in another data set is Cytochrome P450 2C19 (Homo sapiens, UniProt P33261). In words: Inhibition of CYP2C19 (unknown origin). Format: ADME.
A further data set concerns the target Cytochrome P450 2D6 (Homo sapiens, UniProt P10635). Nature of the data set: Inhibition of CYP2D6 (unknown origin). Format: ADME.
The nature of data set [5]: Protein binding in human. Format: ADME.
Data set [6] is described as follows: Protein binding in mouse. Type of data set: ADME, organism-based. The conditions noted are these: in vivo.
Data set [7] is described as follows: Permeability across basolateral to apical side in human Caco2 cells. Format: ADME, cell-based. To be noted: Caco-2, read-out: permeability. (Caco-2 monolayers are a common model of the intestinal barrier.)
Data set [8] can be described thus: Kinetic solubility of compound in acetate buffer at pH 4. Type of data set: physicochemical. The conditions noted are these: read-out: Kinetic_solubility.
The nature of data set [9]: Kinetic solubility of compound in acetate buffer at pH 6.5. Format: physicochemical. To be noted: read-out: Kinetic_solubility.
The nature of data set [10]: Drug concentration in BALB/c mouse at 4 mg/kg, po measured upto 24 hrs. The conditions noted are these: in vivo, read-out: Drug uptake. Type of data set: ADME, organism-based.
A short description of data set [11]: Tmax in BALB/c mouse at 4 mg/kg, po. Format: ADME, organism-based. To be noted: in vivo.
Data set [12] is described as follows: AUC in BALB/c mouse at 4 mg/kg, po measured upto 72 hrs. The conditions noted are these: in vivo. Format: ADME, organism-based. The arrangement: route oral, dose 4 mg/kg, time <=72.
Data set [13] can be described thus: AUC in BALB/c mouse at 2 mg/kg, iv. Type of data set: ADME, organism-based. Also noted: dose 2 mg/kg. To be noted: in vivo.
The nature of data set [14]: Half life in BALB/c mouse at 2 mg/kg, iv. The conditions noted are these: in vivo. Type of data set: ADME, organism-based.
Data set [15] is described as follows: Clearance in BALB/c mouse at 2 mg/kg, iv. Type of data set: ADME, organism-based. To be noted: in vivo.

Sequence of Cytochrome P450 2C19 (P33261 whole entry): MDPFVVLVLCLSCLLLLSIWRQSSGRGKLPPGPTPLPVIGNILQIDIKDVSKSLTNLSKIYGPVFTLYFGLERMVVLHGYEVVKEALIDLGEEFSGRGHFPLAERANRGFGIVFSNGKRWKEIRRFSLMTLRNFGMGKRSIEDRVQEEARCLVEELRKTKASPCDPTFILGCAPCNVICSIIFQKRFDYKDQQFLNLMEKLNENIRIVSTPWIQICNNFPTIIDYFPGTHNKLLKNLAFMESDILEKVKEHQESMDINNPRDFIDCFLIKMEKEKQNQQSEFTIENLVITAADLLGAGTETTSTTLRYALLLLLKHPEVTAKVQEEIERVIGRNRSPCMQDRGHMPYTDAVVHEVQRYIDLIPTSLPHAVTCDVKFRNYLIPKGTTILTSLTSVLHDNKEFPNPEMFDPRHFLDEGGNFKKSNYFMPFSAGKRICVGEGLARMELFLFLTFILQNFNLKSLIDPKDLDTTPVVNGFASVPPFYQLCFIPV
Sequence of Cytochrome P450 2D6 (P10635 whole entry): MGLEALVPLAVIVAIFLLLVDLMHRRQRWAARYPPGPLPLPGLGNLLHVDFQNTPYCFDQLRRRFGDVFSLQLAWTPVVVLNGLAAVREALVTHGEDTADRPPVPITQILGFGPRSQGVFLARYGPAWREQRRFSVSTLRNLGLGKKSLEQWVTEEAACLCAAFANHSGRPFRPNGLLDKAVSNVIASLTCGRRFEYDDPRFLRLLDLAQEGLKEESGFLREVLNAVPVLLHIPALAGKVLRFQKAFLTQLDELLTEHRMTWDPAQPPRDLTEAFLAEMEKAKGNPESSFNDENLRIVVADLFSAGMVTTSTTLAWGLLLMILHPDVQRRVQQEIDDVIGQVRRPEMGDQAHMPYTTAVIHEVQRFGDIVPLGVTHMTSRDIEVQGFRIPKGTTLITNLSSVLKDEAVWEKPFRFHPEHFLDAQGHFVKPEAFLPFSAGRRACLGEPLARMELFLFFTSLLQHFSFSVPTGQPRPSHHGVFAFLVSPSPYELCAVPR

Broadly, the half-life is the time needed for the level to fall by half in the phase considered. A low value points to rapid decline. Usually EC50 stands for the concentration that produces a half-maximal response. A low value points to an effect from little substance. Broadly, the IC50 is the midpoint of a concentration-inhibition curve. Low readings indicate greater potency, high ones weaker potency. The Tmax is the time at which the peak concentration occurs. Broadly, the AUC is concentration integrated over time. One may read the clearance as the rate of elimination divided by the concentration. Low readings indicate inefficient removal, high ones efficient removal. As for `CC(C)(O)CN1C(=O)[C@H](F)C[C@H]1C(=O)N1CC[C@@]2(S(=O)(=O)c3ccc(F)cc3)c3ccc(C(F)(C(F)(F)F)C(F)(F)F)cc3CC[C@@H]12`, the results for the half-life in data set [1] and in data set [14] were above 2 h and 15 h, respectively. In addition, the EC50 in data set [2] is above 50 µM; in [3], above 10 µM; in [4] it was above 7.5 µM. Also, the IC50 on Cytochrome P450 2C19 and against Cytochrome P450 2D6 was above 20 µM each time. In addition, the fraction unbound came out at 0.025 in [5] and 1.3% in data set [6]. In addition, the Papp B→A in [7] came out at 19 ×10⁻⁶ cm/s. For the same molecule, the solubility kinetic in [8] and in data set [9] was below 1 µg/mL in each case. For the same molecule, the concentration at 24 h in data set [10] was determined as 620 nM. The Tmax in data set [11] is 4.3 h. In data set [12], this molecule showed an AUC at 72 h of 43.9 µM·h. The same molecule had an exposure (AUC) in [13] of 23.7 µM·h. In [15], the clearance worked out at 2 mL/min/kg.
